How the values were obtained:
PC3 cells = assay: Lipid raft disruption, cholesterol staining; type: cell-based, human; conditions: 1 μM, 24 h
Experimental: PC3 cells were treated with vehicle control or 1 μM Filipin for 24 h. The treated cells were visualized under a fluorescence microscope. The treated cells were stained with Filipin III and representative images were taken.

PC3 or DU145 cells = assay: Lipid raft disruption, Src kinase in EVs by immunoblotting; type: cell-based, human; conditions: 0-1 μM, 24 h
Experimental: PC3 and DU145 cells were grown overnight. The medium was replaced with the same growth medium but containing EVs/exosome-free FBS with DMSO (control) or Filipin III (0-1 μM) for 24 h to disrupt lipid rafts. The EVs were isolated from the conditioned medium by sequential centrifugation as described above. The isolated EVs and cells were lysed with RIPA buffer for immunoblotting analysis.

[1] = system: DU145, NIH 3T3, SYF1, 22Rv1 cells; assay: Encapsulation of Src family kinase variants into EVs of transduced cells (Western blot, EVs vs TCL); type: cell-based; conditions: for levels of Fyn kinase in EVs: in comparison with Fyn(WT)
Experimental: The transfected cells were grown in exosome-free FBS medium and EVs were isolated from the conditioned medium. […] Ten μg of protein from EVs or TCL were loaded. Src protein levels were quantified by Image J software. […] Data were expressed as mean±SEM, ** p<0.01; *** p<0.001. […] The transduced cells were grown in EVs/exosome-free FBS medium with (Lane 4-6 and 10-12) or without (Lane 1-3 and 7-9) 50 μM myristic acid-azide (an analog of myristic acid). The myristoylated proteins from either EVs or TCL were detected using Click chemistry. Ten μg of protein from EVs or TCL were loaded.
EVs were isolated from conditioned medium by sequential ultracentrifugation. […] Ten μg of protein from EVs or TCL were loaded. […] Coomassie staining was used to show equivalent loading of samples. The Src expression level was quantified by Image J software. Data are expressed as mean±SEM, * p<0.05; ** p<0.01; *** p<0.001.
The transduced cells were grown in EVs/exosome-free medium for 24 h and EVs were isolated from the conditioned medium. Ten μg of protein from extracellular vesicles (EVs) or total cell lysates (TCL) were loaded. […] Data are expressed as mean±SEM. * p<0.05; **** p<0.0001; NS: Not significant.
The transduced cells were grown in exosome-free FBS medium. EVs were collected from the conditioned cell culture medium. Expression levels of Src in extracellular vesicles (EVs) and total cell lysates (TCL) from the transduced cells were evaluated by Western blotting. 10 μg of protein from Exo or TCL were loaded. […] The Src protein was quantified by Image J software. […] Data are expressed as mean±SEM. ** p<0.01.
To isolate EVs from the cell culture medium, the cell lines were grown in ATCC recommended medium in a 150-mm petri-dish. […] The size, zeta potential, and concentration of EVs were measured by nanoparticle tracking analysis (NTA, Particle Metrix, Germany) with ZetaView software for data record and analysis.
The total cell lysate and EVs dissolved in RIPA buffer were subjected to the standard immunoblotting analysis. […] The band intensity was quantified by Image J software.

full length NMT1 protein = target: T1, full length NMT1 protein (Homo sapiens, UniProt P30419); assay: NMT1 activity assay (CoA release, fluorescence); type: biochemical; conditions: octapeptide as NMT1 substrate;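 also: released CoA from NMT1-catalysed myristoylation of octapeptide substrates detected by fluorescence after reaction with a maleimide coumarin dye (excitation 390 nm, emission 479 nm), triplicate points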
T1 construct: Km and Vmax catalyzed by full length NMT1 protein were calculated
T1 sequence (P30419 1-496): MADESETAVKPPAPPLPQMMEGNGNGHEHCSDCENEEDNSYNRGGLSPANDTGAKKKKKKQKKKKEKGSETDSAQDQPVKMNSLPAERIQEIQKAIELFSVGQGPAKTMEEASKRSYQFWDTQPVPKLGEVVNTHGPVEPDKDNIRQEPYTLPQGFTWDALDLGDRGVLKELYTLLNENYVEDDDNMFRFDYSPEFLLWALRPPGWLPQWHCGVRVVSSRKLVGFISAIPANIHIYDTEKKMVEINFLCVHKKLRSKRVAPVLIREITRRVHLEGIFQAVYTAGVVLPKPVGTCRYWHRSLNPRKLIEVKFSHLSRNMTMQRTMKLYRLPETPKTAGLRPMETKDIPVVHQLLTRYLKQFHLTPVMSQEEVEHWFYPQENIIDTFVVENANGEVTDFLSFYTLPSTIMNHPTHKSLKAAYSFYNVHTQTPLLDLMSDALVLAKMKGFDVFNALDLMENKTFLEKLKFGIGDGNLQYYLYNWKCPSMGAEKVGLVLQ
Experimental: The amount of the released CoA were reacted with 7-diethylamino-3-(4′-maleimidylphenyl)-4-methylcoumarin. The assay was performed in 96-well black microplates. The produced fluorescence intensity was measured by Flex Station 3, and detected by microplate reader (excitation at 390 nm; emission at 479 nm).
The amount of the released CoA were reacted with 7-diethylamino-3-(4′-maleimidylphenyl)-4-methylcoumarin. The assay was performed in 96-well black microplates. The produced fluorescence intensity was measured by Flex Station 3, and detected by microplate reader (excitation at 390 nm; emission at 479 nm). To measure the Km and Vmax of NMT1 which catalyzed various octapeptides substrates derived from various proteins, twenty-five octapeptides were synthesized by GenScript. […] Each data point has three repeats.
Km and Vmax catalyzed by full length NMT1 protein were calculated.

Km (full length NMT1 protein) [µM]	Vmax (full length NMT1 protein) [µM/min]	Molecule	levels of Fyn kinase in EVs [1]	also measured
–	–	CCCCC[C@@H](O)[C@H]1C(=O)O[C@H](C)[C@@H](O)/C=C/C=C/C=C/C=C/C=C(\C)[C@@H](O)C[C@H](O)C[C@H](O)C[C@H](O)C[C@H](O)C[C@H](O)C[C@@H]1O [Filipin III]	–	cholesterol levels (PC3 cells): significantly decreased; expression levels of Src kinase in EVs (PC3 or DU145 cells): did not significantly change
–	–	Fyn(C3S/C6S): Fyn mutant with loss of palmitoylation (GSVQSK)	significantly increased	–
–	–	Fyn(G2A): Fyn mutant with loss of myristoylation (ACVQCK)	significantly inhibited	–
–	–	Fyn(WT): wild type Fyn kinase (GCVQCK)	–	levels of kinase in EVs in comparison with total cell lysate [1]: decreased
40	9.6	GQSQSGGH (SEQ ID NO: 364) [PSMC1]	–	–
28.2	54.7	GSCCSCPD (SEQ ID NO: 370) [FRS2]	–	–

Reference: patent US20220195455A1, “DELIVERY OF CRISPR/MCAS9 THROUGH EXTRACELLULAR VESICLES FOR GENOME EDITING” (University of Georgia Research Foundation, Inc., priority 2019, published 2022)
